The values below come from patent US4564621A, “α-Aryl-α-pyridylalkanoic acid derivatives, process for preparation thereof and pharmaceutical composition comprising the same” (Fujisawa Pharmaceutical Co., Ltd., priority 1982, dated 1986).

In one data set the test system is gastric secretion. The data set can be described thus: Test A: Gastric secretion in Heidenhain pouch dogs (tetragastrin-stimulated total acid output). The format is in vivo, Beagle dogs. The settings on record: Canis lupus familiaris, intravenous, tetragastrin 10 μg/kg/hr. The method, then:
Gastric secretion in Heidenhain pouch dogs
Beagle dogs, weighing about 8-13 kg, were used for the study on gastric secretion. The animals were surgically provided with a vagally denervated Heidenhain pouch. One month or more later, the dogs were fasted overnight. Gastric secretion was stimulated by an intravenous infusion of tetragastrin (10 μg/kg/hr). Gastric samples were collected at 15 min intervals. After its volume was almost constant, test compound suspended in 0.1% methyl cellulose solution was injected intravenously (0.2 ml/kg). Acid concentration was determined by titrating an aliquot to pH 7.0 with 0.1N sodium hydroxide solution using automatic titration (Hiranuma RAT-11 Type). Total acid output was calculated by multiplying total volume of gastric samples by acid concentration, and percentage change of total acid output was calculated by comparing with predosing value of test compound.

The next data set concerns gastric antrum. In words: Spasmolytic activity in vivo: spontaneous contraction of the gastric antrum. The settings on record: dogs. Details: species or system Mongrel dogs. The method, then: (§1) Spasmolytic activity in vivo
(§2) Mongrel dogs were anesthetized with s.c. injection of morphine chloride (10 mg/kg) and urethane (1.5 g/kg). The abdomen was incised along the midline, and a ballon filled with water was introduced into the gastric antrum or jejunum. The spontaneous contraction of the gastric antrum and jejunum were continuously recorded through the balloon connected to a pressure transducer. The test drugs were given intravenously. The effect of the test drug is expressed as inhibitory percentage compared to the contractile magnitude obtained before the test drug. The blood pressure was also monitored with a pressure transducer through a cannula inserted in the femoral artery.

For a further data set, the system named is jejunum. The data set can be described thus: Spasmolytic activity in vivo: spontaneous contraction of the jejunum. Also noted: species or system Mongrel dogs. To be noted: dogs. The protocol:
as §1, §2

Data set [1] can be described thus: Blood pressure monitored in spasmolytic activity test (cannula in femoral artery). To be noted: dogs. The data set is classed as in vivo, Mongrel dogs. The protocol:
as §1, §2

Another data set relates to stress ulcer. The data set can be described thus: Test B: Inhibition on stress ulcer. The data set is classed as in vivo, male Sprague-Dawley rats. To be noted: for ED50: Rattus norvegicus, read-out: ED50 (Test B, stress ulcer). The protocol:
Inhibition on stress ulcer
Five male Sprague-Dawley rats, aged 7 weeks and weighing about 200 g were used per group for the study on stress ulcer after the fast for 24 hours. Each animal was immobilized in a restrain cage and immersed to a level of the xiphoid in a water bath kept 22° C. The test compound suspended in 0.1% methylcellulose solution was administered orally (5 ml/kg) just before the immobilization. Seven hours later, the animals were sacrificed and their stomachs were removed. The stomach was then fixed with 2% formalin. The area of ulcers was measured for each animal. The mean area (mm^2) in the test animals was compared with that in the control animals.

A further data set concerns ethanol ulcer. In words: Test C: Inhibition on ethanol ulcer. The format is in vivo, male Sprague-Dawley rats. To be noted: Rattus norvegicus, 0.5 h; oral; rats; absolute ethanol 5 ml/kg 30 minutes after dosing. The protocol:
Inhibition on ethanol ulcer
Five male Sprague-Dawley rats, aged 7 weeks and weighing about 200 g, were used per group for the study on ethanol ulcer after the fast for 24 hours.
Test compound was suspended in 0.1% methylcellulose aqueous solution, and the suspension (5 ml/kg) was orally given to each rat.
The control group was given a vehicle, i.e. 0.1% methylcellulose aqueous solution (5 ml/kg), alone in the same way.
Absolute ethanol (5 ml/kg) was orally administered 30 minutes after dosing with test compound, and one hour later, the rats were sacrificed and their stomachs were removed. The area of ulcers of each rat was measured. The mean area (mm^2) in the medicated group was compared with that in the control group.

The conditions of data set [2]: British Pat. No. 666,778; cited from earlier work.
Setting [3] is: oral, rats, restraint and water immersion 22° C., 7 hours.

Where two headings read alike, the source gives them in different places.

As to `CC(CC(C(N)=O)(c1ccccc1)c1ccccn1)N(C)C` (centres unmarked) [Example 3, 4-(N,N-dimethylamino)-2-phenyl-2-(2-pyridyl)-valeramide], the ED50 in the data set on gastric secretion was 0.27 mg/kg; in the data set with stress ulcer (po, 7 h), 2.7 mg/kg; in the data set with ethanol ulcer, 6.8 mg/kg. The “Duration (gastric antrum)” value was determined as 60 min in the data set with gastric antrum (10 μg/Kg intravenous) and 90 min in the data set on gastric antrum (100 μg/Kg intravenous). For the same compound, the “Inh. (gastric antrum)” value stood at 52% in the data set with gastric antrum (10 μg/Kg intravenous) and 95% in the data set with gastric antrum (100 μg/Kg intravenous). Besides, the “Duration (jejunum)” value with jejunum (10 μg/Kg intravenous) is 30 min; in the data set with jejunum (100 μg/Kg intravenous), greater than 60 min. Further, the “Inh. (jejunum)” value in the data set with jejunum (10 μg/Kg intravenous) amounted to 70%; in the data set with jejunum (100 μg/Kg intravenous) it was 93%. Also, the “Blood pressure change (gastric antrum)” value in data set [1] (10 μg/Kg intravenous) is given as -3%; in data set [1] (100 μg/Kg intravenous), -4%. In addition, the “Blood pressure change (jejunum)” value in data set [1] (10 μg/Kg intravenous) is listed as -3%; in data set [1] (100 μg/Kg intravenous), -7%.

`CC(C)N(CCC(C(N)=O)(c1ccccc1)c1ccccn1)C(C)C` (stereo not drawn) [Disopyramide phosphate, α-phenyl-α-(2-pyridyl)-4-(N,N-diisopropylamino)butyramide]: in the data set with gastric antrum (100 μg/Kg intravenous), the “Duration (gastric antrum)” value came to 10 min and the “Inh. (gastric antrum)” value is reported as 46%. In the data set with gastric antrum (1000 μg/Kg intravenous), the “Duration (gastric antrum)” value was 60 min and the “Inh. (gastric antrum)” value was 88%. Further, in the data set with jejunum (100 μg/Kg intravenous), the “Duration (jejunum)” value amounted to 0 min and the “Inh. (jejunum)” value amounted to 4%. Besides, in the data set on jejunum (1000 μg/Kg intravenous), the “Duration (jejunum)” value is greater than 60 min and the “Inh. (jejunum)” value is recorded as 85%. Besides, in data set [1] (100 μg/Kg intravenous), the “Blood pressure change (gastric antrum)” value is “+3%” and the “Blood pressure change (jejunum)” value was “+1%”. Also, in data set [1] (1000 μg/Kg intravenous), the “Blood pressure change (gastric antrum)” value was “+5%” and the “Blood pressure change (jejunum)” value is given as “+14%”. Moreover, the “ED50 (Test B, stress ulcer)” value in the data set on stress ulcer (setting [3]) is reported as “No Effect”.

For the compound `COC1CC(=C(c2cccs2)c2cccs2)C[N+](C)(C)C1` (centres unmarked) [Timepidium Bromide], in the data set on gastric antrum (10 μg/Kg intravenous), the “Duration (gastric antrum)” value was 10 min and the “Inh. (gastric antrum)” value is reported as 55%. Further, in the data set with gastric antrum (100 μg/Kg intravenous), the “Duration (gastric antrum)” value is 30 min and the “Inh. (gastric antrum)” value came to 92%. In the data set on jejunum (10 μg/Kg intravenous), the “Duration (jejunum)” value was 30 min and the “Inh. (jejunum)” value was found to be 59%. In the data set on jejunum (100 μg/Kg intravenous), the “Duration (jejunum)” value is greater than 60 min and the “Inh. (jejunum)” value was found to be 91%. Further, in data set [1] (10 μg/Kg intravenous), the “Blood pressure change (gastric antrum)” value is on record as “+4%” and the “Blood pressure change (jejunum)” value was -3%. Also, in data set [1] (100 μg/Kg intravenous), the “Blood pressure change (gastric antrum)” value is given as -19% and the “Blood pressure change (jejunum)” value is given as -24%.

Turning to `CC(CN(C)C)C(C#N)(c1ccccc1)c1ccccn1` (stereo not drawn) [α-phenyl-α-(2-pyridyl)-4-(N,N-dimethylamino)-3-methylbutyronitrile], in data set [2], the antihistaminic activity result was “possesses antihistaminic activity”.

In the case of `CN1CCN(CC(=O)N2c3ccccc3C(=O)Nc3cccnc32)CC1` [Gastrozepine], the ED50 in the data set on gastric secretion came to 0.03 mg/kg; in the data set on stress ulcer (setting [3]), 36 mg/kg; with ethanol ulcer it was 14.4 mg/kg.
